How the values were obtained:
[1] = molecular target: human IL-17A / human IL-17RA (Homo sapiens (Human), UniProt Q16552); assay: Human IL-17A biochemical assay (HTRF, blocking of IL-17A binding to IL-17RA); settings: 0.4 nM IL-17A, 0.3 nM IL-17RA, max compound concentration 10 uM
Summary of the method: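 Recombinant human IL-17A (0.4 nM) was pre-incubated with compound (top 10 uM, 2.7-fold, 10 points) for 3 h at room temperature in 20 mM HEPES pH 7.5, 50 mM NaCl, 0.1% BSA, 0.2 mM DTT, 0.005% Tween 20. IL-17RA (0.3 nM) was then added for 1 h, followed by anti-6His Tb and anti-human IgG-XL665 detection for 1 h; IC50 from four-parameter fit.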

[2] = system: IL-17-induced GROα secretion from HT-29 cells; assay: GROα release assay in human colorectal adenocarcinoma epithelial cell (HT-29, ELISA); assay type: cell-based; settings: Homo sapiens, HT-29, 48 h, 10 ng/mL IL-17A, highest concentration 10 μM, read-out: Cellular assay HT29 cell/CXCL1 IC50
Summary of the method: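 HT-29 cells were exposed 48 h at 37°C to IL-17A (final 10 ng/mL) preincubated 15 min with compound (4-fold dilutions, top 10 μM). Secreted GROα was quantified by ELISA against a standard curve, and IC50 obtained by four-parameter fitting.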

Chain of human IL-17A / human IL-17RA (Q16552 24-155): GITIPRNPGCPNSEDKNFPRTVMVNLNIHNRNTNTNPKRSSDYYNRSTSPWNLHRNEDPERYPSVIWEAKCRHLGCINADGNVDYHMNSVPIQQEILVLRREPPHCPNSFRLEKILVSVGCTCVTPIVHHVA

Structure (SMILES) | IC50 [1] [nM] | IC50 [2] [nM]
CNC(=O)C1(N2CC(C)NC2=O)Cc2cc3nc([C@@H](NC(=O)c4ccnn4C)C4CCCCC4)[nH]c3cc2C1 (stereo partly drawn) [Example 5, 2-((S)-cyclohexyl(1-methyl-1H-pyrazole-5-carboxamido)methyl)-N-methyl-6-(4-methyl-2-oxoimidazolidin-1-yl)-1,5,6,7-tetrahydroindeno[5,6-d]imidazole-6-carboxamide] | 410 | 353
Cc1nonc1C(=O)N[C@H](C(=O)Nc1ccc2c(c1)CC(C(=O)Nc1ccccc1C(F)(F)F)(N1C[C@@H](C(C)C)NC1=O)C2)C(C1CC1)C1CC1 (stereo partly drawn) [Example 272, N-((2S)-1,1-dicyclopropyl-3-((2-((R)-4-isopropyl-2-oxoimidazolidin-1-yl)-2-((2-(trifluoromethyl)phenyl)carbamoyl)-2,3-dihydro-1H-inden-5-yl)amino)-3-oxopropan-2-yl)-4-methyl-1,2,5-oxadiazole-3-carboxamide] | 295 | 650
Cc1ccccc1NC(=O)C1(N2C[C@@H](C(C)C)NC2=O)Cc2ccc(NC(=O)[C@@H](NC(=O)c3nonc3C)C(C3CC3)C3CC3)cc2C1 (stereo partly drawn) [Example 261, N-((2S)-1,1-dicyclopropyl-3-((2-((R)-4-isopropyl-2-oxoimidazolidin-1-yl)-2-(o-tolylcarbamoyl)-2,3-dihydro-1H-inden-5-yl)amino)-3-oxopropan-2-yl)-4-methyl-1,2,5-oxadiazole-3-carboxamide] | 58 | 143
Cc1nonc1C(=O)N[C@H](C(=O)Nc1ccc2c(c1)CC(c1ccc(F)cc1)(N1C[C@@H](C(C)C)NC1=O)C2)C(C1CC1)C1CC1 (stereo partly drawn) [Example 251, N-((2S)-1,1-dicyclopropyl-3-((2-(4-fluorophenyl)-2-((R)-4-isopropyl-2-oxoimidazolidin-1-yl)-2,3-dihydro-1H-inden-5-yl)amino)-3-oxopropan-2-yl)-4-methyl-1,2,5-oxadiazole-3-carboxamide] | 1510 | 1510
CNC(=O)C1(N2CCNC2=O)Cc2ccc(NC(=O)[C@@H](NC(=O)c3ccnn3C)C3CCCCC3)cc2C1 (stereo partly drawn) [Example 13, N-((1S)-1-cyclohexyl-2-((2-(methylcarbamoyl)-2-(2-oxoimidazolidin-1-yl)-2,3-dihydro-1H-inden-5-yl)amino)-2-oxoethyl)-1-methyl-1H-pyrazole-5-carboxamide] | 1800 | 1500
CNC(=O)C1(N2CC3(CC3)CNC2=O)Cc2ccc(NC(=O)[C@@H](NC(=O)c3ccnn3C)C3CCCCC3)cc2C1 (stereo partly drawn) [Example 102, N-((1S)-1-cyclohexyl-2-((2-(methylcarbamoyl)-2-(6-oxo-5,7-diazaspiro[2.5]octan-5-yl)-2,3-dihydro-1H-inden-5-yl)amino)-2-oxoethyl)-1-methyl-1H-pyrazole-5-carboxamide] | 9.5 | 17.3
Cc1nonc1C(=O)N[C@H](C(=O)Nc1ccc2c(c1)CC(c1c[nH]c(C3CC3)n1)(N1C[C@@H](C(C)C)NC1=O)C2)C(C1CC1)C1CC1 (stereo partly drawn) [Example 252, N-((2S)-1,1-dicyclopropyl-3-((2-(2-cyclopropyl-1H-imidazol-4-yl)-2-((R)-4-isopropyl-2-oxoimidazolidin-1-yl)-2,3-dihydro-1H-inden-5-yl)amino)-3-oxopropan-2-yl)-4-methyl-1,2,5-oxadiazole-3-carboxamide] | 829 | 1160
Cn1nccc1C(=O)N[C@H](C(=O)Nc1ccc2oc(CN3C[C@@H](C(F)(F)F)NC3=O)cc2c1)C1CCCCC1 [Example 240, N-((S)-1-cyclohexyl-2-oxo-2-((2-(((S)-2-oxo-4-(trifluoromethyl)imidazolidin-1-yl)methyl)benzofuran-5-yl)amino)ethyl)-1-methyl-1H-pyrazole-5-carboxamide] | 200 | 264
CNC(=O)C1(N2CC3(CNC2=O)CC(F)(F)C3)Cc2ccc(NC(=O)[C@@H](NC(=O)c3ccnn3C)C3CCCCC3)cc2C1 (stereo partly drawn) [Example 174, N-((1S)-1-cyclohexyl-2-((2-(2,2-difluoro-7-oxo-6,8-diazaspiro[3.5]nonan-6-yl)-2-(methylcarbamoyl)-2,3-dihydro-1H-inden-5-yl)amino)-2-oxoethyl)-1-methyl-1H-pyrazole-5-carboxamide] | 264 | 485
Cc1nonc1C(=O)N[C@H](C(=O)Nc1ccc2c(c1)CC(C(=O)NC1(c3ccccc3F)CC1)(N1CC3(CC3)CNC1=O)C2)C1CCC(F)(F)CC1 (stereo partly drawn) [Example 232, N-((1S)-1-(4,4-difluorocyclohexyl)-2-((2-((1-(2-fluorophenyl)cyclopropyl)carbamoyl)-2-(6-oxo-5,7-diazaspiro[2.5]octan-5-yl)-2,3-dihydro-1H-inden-5-yl)amino)-2-oxoethyl)-4-methyl-1,2,5-oxadiazole-3-carboxamide] | 117 | 158
CNC(=O)C1(N2C[C@@H](C(C)C)NC2=O)Cc2ccc(NC(=O)C(NC(=O)c3ccnn3C)C3CCCC(C)C3)cc2C1 (stereo partly drawn) [Example 104, N-(2-((2-((R)-4-isopropyl-2-oxoimidazolidin-1-yl)-2-(methylcarbamoyl)-2,3-dihydro-1H-inden-5-yl)amino)-1-(3-methylcyclohexyl)-2-oxoethyl)-1-methyl-1H-pyrazole-5-carboxamide] | 12 | 23.6
Cc1nonc1C(=O)N[C@H](C(=O)Nc1ccc2c(c1)CC(C(=O)Nc1ccccc1C(F)F)(N1C[C@@H](C(C)C)NC1=O)C2)C(C1CC1)C1CC1 (stereo partly drawn) [Example 268, N-((2S)-1,1-dicyclopropyl-3-((2-((2-(difluoromethyl)phenyl)carbamoyl)-2-((R)-4-isopropyl-2-oxoimidazolidin-1-yl)-2,3-dihydro-1H-inden-5-yl)amino)-3-oxopropan-2-yl)-4-methyl-1,2,5-oxadiazole-3-carboxamide] | 88.1 | 248
Cc1nonc1C(=O)N[C@H](C(=O)Nc1ccc2c(c1)CC(C(=O)Nc1ccccc1C#N)(N1C[C@@H](C(C)C)NC1=O)C2)C(C1CC1)C1CC1 (stereo partly drawn) [Example 283, N-((2S)-1-((2-((2-cyanophenyl)carbamoyl)-2-((R)-4-isopropyl-2-oxoimidazolidin-1-yl)-2,3-dihydro-1H-inden-5-yl)amino)-3,3-dicyclopropyl-1-oxopropan-2-yl)-4-methyl-1,2,5-oxadiazole-3-carboxamide] | 32.5 | 34.6
CNC(=O)C1(N2CC(C)(Cc3ccc(OC)cc3)CNC2=O)Cc2ccc(NC(=O)[C@@H](NC(=O)c3ccnn3C)C3CCCCC3)cc2C1 (stereo partly drawn) [Example 100, N-((1S)-1-cyclohexyl-2-((2-(5-(4-methoxybenzyl)-5-methyl-2-oxotetrahydropyrimidin-1(2H)-yl)-2-(methylcarbamoyl)-2,3-dihydro-1H-inden-5-yl)amino)-2-oxoethyl)-1-methyl-1H-pyrazole-5-carboxamide] | 886 | 2560
CNC(=O)C1(N2C[C@@H](C(C)C)NC2=O)Cc2ccc(NC(=O)[C@H](Cc3cc(-c4ccnc(C(C)(C)O)c4)ccc3Cl)NC(=O)c3ccnn3C)cc2C1 (stereo partly drawn) [Example 79, N-((2S)-3-(2-chloro-5-(2-(2-hydroxypropan-2-yl)pyridin-4-yl)phenyl)-1-((2-((R)-4-isopropyl-2-oxoimidazolidin-1-yl)-2-(methylcarbamoyl)-2,3-dihydro-1H-inden-5-yl)amino)-1-oxopropan-2-yl)-1-methyl-1H-pyrazole-5-carboxamide] | 79 | 1300
CNC(=O)C1(N2C[C@@H](C(C)C)NC2=O)Cc2ccc(NC(=O)[C@@H](NC(=O)c3cccc(Oc4c(C)n[nH]c4C)c3)C3CCCCC3)cc2C1 (stereo partly drawn) [Example 149, 5-((S)-2-cyclohexyl-2-(3-((3,5-dimethyl-1H-pyrazol-4-yl)oxy)benzamido)acetamido)-2-((R)-4-isopropyl-2-oxoimidazolidin-1-yl)-N-methyl-2,3-dihydro-1H-indene-2-carboxamide] | 92 | 44.3
CNC(=O)C1(N2C(=O)NCC2C)Cc2ccc(NC(=O)[C@@H](NC(=O)c3ccnn3C)C3CCCCC3)cc2C1 (stereo partly drawn) [Example 17, N-((1S)-1-cyclohexyl-2-((2-(5-methyl-2-oxoimidazolidin-1-yl)-2-(methylcarbamoyl)-2,3-dihydro-1H-inden-5-yl)amino)-2-oxoethyl)-1-methyl-1H-pyrazole-5-carboxamide] | 2500 | 2640
Cc1nonc1C(=O)N[C@H](C(=O)Nc1ccc2c(c1)CC(N1CC(C(F)(F)F)NC1=O)(C(C)(C)O)C2)C(C1CC1)C1CC1 (stereo partly drawn) [Example 279, N-((2S)-1,1-dicyclopropyl-3-((2-(2-hydroxypropan-2-yl)-2-(2-oxo-4-(trifluoromethyl)imidazolidin-1-yl)-2,3-dihydro-1H-inden-5-yl)amino)-3-oxopropan-2-yl)-4-methyl-1,2,5-oxadiazole-3-carboxamide] | 64.8 | 69.1
Cc1nonc1C(=O)N[C@H](C(=O)Nc1ccc2c(c1)CC(C(=O)Nc1ccccc1)(N1C[C@@H](C(C)C)NC1=O)C2)C1CCC(F)(F)CC1 (stereo partly drawn) [Example 242, N-((1S)-1-(4,4-difluorocyclohexyl)-2-((2-((R)-4-isopropyl-2-oxoimidazolidin-1-yl)-2-(phenylcarbamoyl)-2,3-dihydro-1H-inden-5-yl)amino)-2-oxoethyl)-4-methyl-1,2,5-oxadiazole-3-carboxamide] | 250 | 652
CNC(=O)C1(N2C[C@@H](C(C)C)NC2=O)Cc2ccc(NC(=O)C(NC(=O)c3ccnn3C)C3CCC4(CC3)CC4)cc2C1 (stereo partly drawn) [Example 112, N-(2-((2-((R)-4-isopropyl-2-oxoimidazolidin-1-yl)-2-(methylcarbamoyl)-2,3-dihydro-1H-inden-5-yl)amino)-2-oxo-1-(spiro[2.5]octan-6-yl)ethyl)-1-methyl-1H-pyrazole-5-carboxamide] | 41 | 181

— patent US20250154138A1, “Small Molecule IL-17A Modulators” (BeiGene, Ltd., priority 2022, published 2025)
